From publication PMC4280898, “Diazido Mixed-Amine Platinum(IV) Anticancer Complexes Activatable by Visible-Light Form Novel DNA Adducts” (Chemistry (Weinheim an Der Bergstrasse, Germany), 2013)
Where “and” joins values, the source holds several entries; their conditions need not be identical. Equal values may be shown once.

Experiments:
calf thymus DNA = experiment: Characterisation of DNA adducts with thiourea; type: binding; details: in the dark; for Total adducts displaced from DNA by thiourea after 24 h: 10 mM thiourea; for Bifunctional adducts after 24 h: thiourea probe
Procedure: Characterisation of DNA adducts: The experiments aimed at the characterisation of DNA adducts of photoactivated 1 or 2, and of 5 or 6 in the dark were conducted employing thiourea as a probe of DNA monofunctional adducts of trans-platinum(II) compounds[24] (for details, see the Supporting Information). After 24 h, 55(±10), 48(±2), 66(±1) and 64(±3) % of the total adducts of platinum complexes 1, 2, 5 and 6, respectively, were displaced from DNA by thiourea (Figure 10). Thus, only 45, 52, 34 and 36 % of DNA adducts formed by 1 or 2 (photoactivated) and 5 or 6 (in the dark), respectively, had evolved to bifunctional lesions after this time interval.
Figure 10 Quantification of DNA adducts by thiourea. Dependence of rb on incubation time for calf thymus DNA modified by photoactivated: A) 1, or B) 2 (420 nm light); and in the dark with: C) 5, or D) 6. Reactions were stopped with thiourea (10 mM; 10 min, 310 K; ▴) or without thiourea (▪), and the platinum associated with DNA was assessed. […]
assayed by differential pulse polarography for free, unbound platinum.[16] The amount of platinum bound to DNA was calculated by subtracting the amount of free (unbound) platinum from the total amount of platinum present in the reaction.
Transcription mapping of DNA adducts in vitro
The 212-bp DNA fragment used was yielded from cutting of pSP73KB DNA by NdeI and HpaI restriction endonucleases (a substantial part of the nucleotide sequence is […]
This fragment contained T7 RNA polymerase promoter (in the upper strand close to its 3'-end). This linear DNA fragment was randomly modified by transplatin (8), cisplatin (7), 5 and 6 in the dark and by 1 and 2 photoactivated with 420 nm light at rb = 0.01, for RNA synthesis by T7 RNA polymerase. The fragments produced in RNA synthesis on the template modified by the platinum complexes were analysed by a 6% polyacrylamide/8M urea sequencing gel.
Quantification of DNA adducts
Double-helical calf thymus DNA at a concentration of 32 µg/mL was incubated with 5 or 6 in the dark, or alternatively, DNA mixed with 1 or 2 was irradiated for 30min (λirrad = 420 nm) and then incubated in the dark in 10 mM NaClO4 at 310 K. At various time intervals the aliquots were withdrawn and the platination reaction was stopped by addition of 10 mM thiourea, samples were incubated for 10 min at […] and then quickly cooled to 253 K. In parallel experiments, 100 mM NaCl was added to the samples instead of thiourea and samples were immediately cooled to 253 K.
Platinum associated with DNA was assessed by flameless atomic absorption […]
Quantification of DNA interstrand cross-links […]

HMGB1 protein = target: T1, HMGB1 protein (Homo sapiens, UniProt P09429); experiment: HMGB1 recognition of platinated 50 bp duplex, gel mobility shift assay; type: binding; details: 50 bp duplex modified in the dark
T1 sequence (P09429 1-215): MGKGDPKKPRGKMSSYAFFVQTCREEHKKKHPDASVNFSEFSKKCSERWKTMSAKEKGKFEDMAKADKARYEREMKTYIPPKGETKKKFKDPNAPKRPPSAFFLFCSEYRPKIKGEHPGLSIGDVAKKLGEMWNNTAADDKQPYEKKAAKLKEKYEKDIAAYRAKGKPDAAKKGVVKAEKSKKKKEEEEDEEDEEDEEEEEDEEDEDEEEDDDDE
Text: HMGB1 protein recognition: The interactions of high mobility group protein B1 (HMGB1) with a 50 bp duplex DNA adducts formed by 1 or 2 under irradiation conditions and 5 or 6 in the dark were investigated using a gel mobility shift assay.
Figure 13 Recognition by HMGB1 protein of platinated DNA. Affinity of full-length HMGB1 to non-modified (control) DNA (lanes 1 and 2) or DNA modified by cisplatin (7) in the dark (lanes 3 and 4), 5 in the dark (lanes 5 and 6), 6 in the dark (lanes 7 and 8), photoactivated 1 (420 nm light, lanes 9 and 10) or photoactivated 2 (420 nm light, lanes 11 and 12). Lanes 1, 3, 5, 7, 9, 11, no protein added; lanes 2, 4, 6, 8, 10, 12, 700 ng HMGB1 added.

| Compound | Total adducts displaced from DNA by thiourea after 24 h (calf thymus DNA) | Bifunctional adducts after 24 h (calf thymus DNA) | HMGB1 protein recognition (HMGB1 protein) |
| --- | --- | --- | --- |
| C[NH2+][Pt@SP3-2]([Cl])([Cl])[n+]1ccsc1 [Complex 6, trans-[PtCl2(MA)(Tz)]] | 64(±3) % | 36% and 36±2% | no detectable binding and no |
| C[NH2+][Pt@SP3-2]([Cl])([Cl])[n+]1ccccc1 [Complex 5, trans-[PtCl2(MA)(Py)]] | 66(±1) % | 34% and 34±1% | no detectable binding and no |
